Measurements: patent US7608289B2, “Food supplemented with a carnitine, suitable for stimulating the biosynthesis of polyunsaturated fatty acids from the saturated fatty acids contained in the food” (Sigma-Tau Industrie Farmaceutiche Riunite S.p.A., priority 1999, dated 2009)

Columns and labels:
[1] = Plasma lipid test: polyunsaturated to saturated fatty acid ratio in rabbits on milk diet plus carnitines; type: in vivo, New Zealand male rabbits; conditions: plasma lipids, carnitines given with milk diet, compared to controls
Excerpt: (§1) For these tests a batch of New Zealand male rabbits with a mean body weight of 3.7 kg was used, which, after a period of acclimatisation on a standard diet for eight days, were divided into different groups. One group received standard diet alone, while a second group received unskimmed milk mixed with pellets of the normal diet whose final composition was as follows: 4% fats, 24% proteins, 58% carbohydrates, 0.7% fibre, 10% water, 3% minerals and 1% vitamins. […]
(§2) After four weeks of treatment, blood samples were taken from the marginal vein of the ear and the plasma lipids obtained were subjected to measurement of the percentages of both saturated fatty acids and polyunsaturated fatty acids. The percentage amounts of unsaturated omega-3 fatty acids present in liver samples taken from the same animals were also measured. While total lipids were measured according to the method described by Schanfeld (Schanfeld G., J. Clin. Invest., 226:497, 1957) and Folch (Folch J., J. Biol. Chem., 226:497, 1957), the triglycerides and phospholipids were measured according to the method described by Terstra (Terstra A. H. M., Anal. Biochem., 11:149, 1981) and the n-3 and n-6 fatty acids according to the method described by Nestel (Nestel P. J., Ann. Rev. Nutr., 10:149, 1990) and Cevec (Cevec G., Biochemistry, 30:7:7186, 1991).

[2] = n-3 and n-6 fatty acids in hepatic phospholipids of rabbits on the diets; type: in vivo, New Zealand male rabbits; conditions: liver specimens, carnitines added to the milk diet
Excerpt: as §1, §2

Row | Structure (SMILES) | change of the ratio of polyunsaturated to saturated fatty acids (in words) [1] | increase in n-3 fatty acids / improvement of n-3 to n-6 ratio in liver (in words) [2]
1 | CC(=O)O[C@H](CC(=O)[O-])C[N+](C)(C)C [acetyl L-carnitine] | particularly evident | 
2 | CCC(=O)O[C@H](CC(=O)[O-])C[N+](C)(C)C [propionyl L-carnitine] | particularly evident | most active compound
